Measured values published in PubChem BioAssay AID1918956 (Molecular Pharmacology Branch, DTP, NCI, 2023).
Several values for one entry are separate records, joined by “and”; a condition that tells them apart may be missing. Identical values can stand only once.

System: OVCAR-5 complex spheroids, viability
Assay: Anticancer human tumor OVCAR-5 cell line growth inhibition;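 further: spheroids exposed to agents for seven days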;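 on viability, T/C: 100% = DMSO vehicle control wells viability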
Conditions: for viability, T/C: stronger effect = lower value
Summary of the method: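 Complex spheroids of tumor cells with HUVEC and human MSCs, exposed to iadademstat combined with other agents. Each agent tested in half-log steps from near clinical Cmax (else 10 microM top), DMSO ≤0.25%.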

[1] = curve of first compound, second compound 0.1 µM
[2] = curve of first compound, second compound 0.316 µM
[3] = curve of first compound, second compound 1 µM
[4] = curve of first compound, second compound 3.16 µM
[5] = curve of first compound, second compound 10 µM
[6] = second compound 0.1 µM, first compound 0.0316 µM
[7] = second compound 0.1 µM, first compound 0.1 µM
[8] = second compound 0.316 µM, first compound 0.0316 µM
[9] = second compound 0.316 µM, first compound 0.1 µM
[10] = second compound 1 µM, first compound 0.0316 µM
[11] = second compound 1 µM, first compound 0.1 µM
[12] = second compound 3.16 µM, first compound 0.0316 µM
[13] = second compound 3.16 µM, first compound 0.1 µM
[14] = second compound 10 µM, first compound 0.0316 µM
[15] = second compound 10 µM, first compound 0.1 µM
[16] = second compound 0.1 µM, first compound 0.00949 µM
[17] = second compound 0.1 µM, first compound 0.03 µM
[18] = second compound 0.1 µM, first compound 0.0949 µM
[19] = second compound 0.1 µM, first compound 0.3 µM
[20] = second compound 0.1 µM, first compound 0.949 µM
[21] = second compound 0.1 µM, first compound 3 µM
[22] = second compound 0.316 µM, first compound 0.00949 µM
[23] = second compound 0.316 µM, first compound 0.03 µM
[24] = second compound 0.316 µM, first compound 0.0949 µM
[25] = second compound 0.316 µM, first compound 0.3 µM
[26] = second compound 0.316 µM, first compound 0.949 µM
[27] = second compound 0.316 µM, first compound 3 µM
[28] = second compound 1 µM, first compound 0.00949 µM
[29] = second compound 1 µM, first compound 0.03 µM
[30] = second compound 1 µM, first compound 0.0949 µM
[31] = second compound 1 µM, first compound 0.3 µM
[32] = second compound 1 µM, first compound 0.949 µM
[33] = second compound 1 µM, first compound 3 µM
[34] = second compound 3.16 µM, first compound 0.00949 µM
[35] = second compound 3.16 µM, first compound 0.03 µM
[36] = second compound 3.16 µM, first compound 0.0949 µM
[37] = second compound 3.16 µM, first compound 0.3 µM
[38] = second compound 3.16 µM, first compound 0.949 µM
[39] = second compound 3.16 µM, first compound 3 µM
[40] = second compound 10 µM, first compound 0.00949 µM
[41] = second compound 10 µM, first compound 0.03 µM
[42] = second compound 10 µM, first compound 0.0949 µM
[43] = second compound 10 µM, first compound 0.3 µM
[44] = second compound 10 µM, first compound 0.949 µM
[45] = second compound 10 µM, first compound 3 µM

SMILES: CC1COCCN1c1cc(C2(S(C)(=N)=O)CC2)nc(-c2ccnc3[nH]ccc23)n1 (stereo unspecified) + NC1CC1c1ccc(-c2cccc(O)c2)cc1
- IC50 [1]: 858 nM
- IC50 [2]: 862 nM
- IC50 [3]: 792 nM
- IC50 [4]: 663 nM
- IC50 [5]: 697 nM
- viability, T/C [6]: 80.6%
- viability, T/C [7]: 78.3%
- viability, T/C (second compound 0.1 µM, first compound 0.316 µM): 72.8%
- viability, T/C (second compound 0.1 µM, first compound 1 µM): 45.9%
- viability, T/C (second compound 0.1 µM, first compound 3.16 µM): 32%
- viability, T/C (second compound 0.1 µM, first compound 10 µM): 26.7%
- viability, T/C [8]: 89.2%
- viability, T/C [9]: 95.6%
- viability, T/C (second compound 0.316 µM, first compound 0.316 µM): 80.6%
- viability, T/C (second compound 0.316 µM, first compound 1 µM): 44.9%
- viability, T/C (second compound 0.316 µM, first compound 3.16 µM): 33%
- viability, T/C (second compound 0.316 µM, first compound 10 µM): 25.6%
- viability, T/C [10]: 71.4%
- viability, T/C [11]: 75.4%
- viability, T/C (second compound 1 µM, first compound 0.316 µM): 74.2%
- viability, T/C (second compound 1 µM, first compound 1 µM): 44%
- viability, T/C (second compound 1 µM, first compound 3.16 µM): 29.9%
- viability, T/C (second compound 1 µM, first compound 10 µM): 25%
- viability, T/C [12]: 88.8%
- viability, T/C [13]: 77.6%
- viability, T/C (second compound 3.16 µM, first compound 0.316 µM): 62.1%
- viability, T/C (second compound 3.16 µM, first compound 1 µM): 42.9%
- viability, T/C (second compound 3.16 µM, first compound 3.16 µM): 32%
- viability, T/C (second compound 3.16 µM, first compound 10 µM): 24.8%
- viability, T/C [14]: 76.9%
- viability, T/C [15]: 78.6%
- viability, T/C (second compound 10 µM, first compound 0.316 µM): 65.7%
- viability, T/C (second compound 10 µM, first compound 1 µM): 42.3%
- viability, T/C (second compound 10 µM, first compound 3.16 µM): 32.3%
- viability, T/C (second compound 10 µM, first compound 10 µM): 27%

SMILES: Nc1ncn(C2CC(O)C(CO)S2)c(=O)n1 (stereo unspecified)
- viability, T/C (compound 0.000949 µM): 107% and 104%
- viability, T/C (compound 0.003 µM): 104% and 109%
- viability, T/C (compound 0.00949 µM): 104%
- viability, T/C (compound 0.03 µM): 97.1% and 94.2%
- viability, T/C (compound 0.0949 µM): 82.2% and 85.6%
- viability, T/C (compound 0.3 µM): 78.2% and 72.3%
- IC50 (curve of compound): > 300 nM

SMILES: CCc1c2c(nc3ccc(O)cc13)-c1cc3c(c(=O)n1C2)COC(=O)[C@]3(O)CC
- viability, T/C (compound 0.000949 µM): 39.2% and 30.3%
- viability, T/C (compound 0.003 µM): 21.2% and 19.1%
- viability, T/C (compound 0.00949 µM): 8.48% and 7.2%
- viability, T/C (compound 0.03 µM): 3.26% and 2.51%
- viability, T/C (compound 0.0949 µM): 1.15% and 0.63%
- viability, T/C (compound 0.3 µM): 0.68% and 0.54%
- IC50 (curve of compound): < 0.949 nM

SMILES: NS(=O)(=O)OCC1CC(n2ccc3c(NC4CCc5ccccc54)ncnc32)CC1O (stereo unspecified) + NC1CC1c1ccc(-c2cccc(O)c2)cc1
- IC50 [1]: 186 nM
- IC50 [2]: 178 nM
- IC50 [3]: 145 nM
- IC50 [4]: 156 nM
- IC50 [5]: 83.9 nM
- viability, T/C [16]: 145%
- viability, T/C [17]: 133%
- viability, T/C [18]: 84.2%
- viability, T/C [19]: 25.6%
- viability, T/C [20]: 8.27%
- viability, T/C [21]: 5.16%
- viability, T/C [22]: 152%
- viability, T/C [23]: 149%
- viability, T/C [24]: 79.6%
- viability, T/C [25]: 26.9%
- viability, T/C [26]: 22.2%
- viability, T/C [27]: 4.93%
- viability, T/C [28]: 117%
- viability, T/C [29]: 145%
- viability, T/C [30]: 72%
- viability, T/C [31]: 25%
- viability, T/C [32]: 7.9%
- viability, T/C [33]: 4.8%
- viability, T/C [34]: 141%
- viability, T/C [35]: 126%
- viability, T/C [36]: 69.7%
- viability, T/C [37]: 23.8%
- viability, T/C [38]: 7.78%
- viability, T/C [39]: 4.11%
- viability, T/C [40]: 131%
- viability, T/C [41]: 101%
- viability, T/C [42]: 42.7%
- viability, T/C [43]: 16.2%
- viability, T/C [44]: 6.76%
- viability, T/C [45]: 4.61%

SMILES: CC(C)CC(NC(=O)CNC(=O)c1cc(Cl)ccc1Cl)B1OC(=O)CC(CC(=O)O)(C(=O)O)O1 (stereo unspecified) + NC1CCC(NC2CC2c2ccccc2)CC1
- IC50 [1]: > 100 nM
- IC50 [2]: > 100 nM
- IC50 [3]: > 100 nM
- IC50 [4]: > 100 nM
- IC50 [5]: > 100 nM
- viability, T/C (second compound 0.1 µM, first compound 0.000316 µM): 96.8%
- viability, T/C (second compound 0.1 µM, first compound 0.001 µM): 95%
- viability, T/C (second compound 0.1 µM, first compound 0.00316 µM): 108%
- viability, T/C (second compound 0.1 µM, first compound 0.01 µM): 91.5%
- viability, T/C [6]: 89.7%
- viability, T/C [7]: 71.8%
- viability, T/C (second compound 0.316 µM, first compound 0.000316 µM): 97.5%
- viability, T/C (second compound 0.316 µM, first compound 0.001 µM): 112%
- viability, T/C (second compound 0.316 µM, first compound 0.00316 µM): 113%
- viability, T/C (second compound 0.316 µM, first compound 0.01 µM): 83.6%
- viability, T/C [8]: 85.2%
- viability, T/C [9]: 70.8%
- viability, T/C (second compound 1 µM, first compound 0.000316 µM): 103%
- viability, T/C (second compound 1 µM, first compound 0.001 µM): 93.7%
- viability, T/C (second compound 1 µM, first compound 0.00316 µM): 110%
- viability, T/C (second compound 1 µM, first compound 0.01 µM): 95.1%
- viability, T/C [10]: 80.7%
- viability, T/C [11]: 71.4%
- viability, T/C (second compound 3.16 µM, first compound 0.000316 µM): 101%
- viability, T/C (second compound 3.16 µM, first compound 0.001 µM): 103%
- viability, T/C (second compound 3.16 µM, first compound 0.00316 µM): 95.6%
- viability, T/C (second compound 3.16 µM, first compound 0.01 µM): 76.5%
- viability, T/C [12]: 77.7%
- viability, T/C [13]: 64.6%
- viability, T/C (second compound 10 µM, first compound 0.000316 µM): 98.1%
- viability, T/C (second compound 10 µM, first compound 0.001 µM): 79.8%
- viability, T/C (second compound 10 µM, first compound 0.00316 µM): 89.1%
- viability, T/C (second compound 10 µM, first compound 0.01 µM): 86.7%
- viability, T/C [14]: 76.5%
- viability, T/C [15]: 56.6%

SMILES: O=C(c1cc(Cc2n[nH]c(=O)c3ccccc23)ccc1F)N1CCN(C(=O)C2CC2)CC1
- viability, T/C (compound 0.0316 µM): 92.2% and 111%
- viability, T/C (compound 0.1 µM): 109% and 98.7%
- viability, T/C (compound 0.316 µM): 95.8% and 102%
- viability, T/C (compound 1 µM): 90.8% and 91.7%
- viability, T/C (compound 3.16 µM): 87.7% and 73.7%
- viability, T/C (compound 10 µM): 79.7% and 69.6%
- IC50 (curve of compound): > 10000 nM

SMILES: COc1cc(C2c3cc4c(cc3C(OC3OC5COC(C)OC5C(O)C3O)C3COC(=O)C23)OCO4)cc(OC)c1O (stereo unspecified) + NC1CCC(NC2CC2c2ccccc2)CC1
- IC50 [1]: 836 nM
- IC50 [2]: 763 nM
- IC50 [3]: 890 nM
- IC50 [4]: 737 nM
- IC50 [5]: 712 nM
- viability, T/C [16]: 113%
- viability, T/C [17]: 105%
- viability, T/C [18]: 100%
- viability, T/C [19]: 73.5%
- viability, T/C [20]: 45.6%
- viability, T/C [21]: 41.4%
- viability, T/C [22]: 106%
- viability, T/C [23]: 106%
- viability, T/C [24]: 100%
- viability, T/C [25]: 71%
- viability, T/C [26]: 43.6%
- viability, T/C [27]: 43.9%
- viability, T/C [28]: 98.7%
- viability, T/C [29]: 106%
- viability, T/C [30]: 103%
- viability, T/C [31]: 76.7%
- viability, T/C [32]: 50%
- viability, T/C [33]: 44.2%
- viability, T/C [34]: 99.9%
- viability, T/C [35]: 105%
- viability, T/C [36]: 103%
- viability, T/C [37]: 70.9%
- viability, T/C [38]: 42.8%
- viability, T/C [39]: 45.4%
- viability, T/C [40]: 89.4%
- viability, T/C [41]: 93%
- viability, T/C [42]: 82.9%
- viability, T/C [43]: 67.7%
- viability, T/C [44]: 42.5%
- viability, T/C [45]: 40.9%
